# Results from patent publication US4314988A, “Folic acid derivatives and process for preparation” (Baker Instruments Corp., priority 1979, dated 1982).
# What was measured:
# whole milk folate binder = whole milk folate binder (Bos taurus, UniProt P02702); test: Competitive protein binding (CPB) radioassay for folates using pteroyltyrosine [125I] as radiolabel; conditions: for coincidence of dose response curves generated using pteroyltyrosine [125I] as label: high pH versus lower pH
# Procedure: The use of the Centria® analytical system, Union Carbide Corporation, in this example, is meant to be illustrative and other methods, both automated and manual, obvious to those skilled in the clinical diagnostic art are also within the scope of this invention.
# Briefly, the Centria® system is a tri-modular instrument in which reagents are pipetted on to a multiwell transfer disk and mixed centrifugally with standards or patients' samples. After a suitable incubation period, the components are separated by a centrifugal elution of the bound and free fractions and the bound fractions counted three at a time.
# Folic acid and N^5 -methyltetrahydrofolic acid standards in the range 0-20 nanograms/milliliter were prepared in 0.05 M sodium borate, pH 9.3 containing 0.1% human serum albumin. The whole milk binder was prepared according to the method of Rothenberg et al., (3) and dissolved in sodium borate, pH 9.3 containing 0.1% human serum albumin.
# (50 microliters, 20,000 cpm) plus 85 microliters of water with the limited number of binding sites contained in a 200 microliter solution of whole milk folate binder. The binding reactions may be shown as follows:
# A gamma counter which counts three of the 36 positions at a time for one minute, so constructed that only the eluate bottom portion of the test tubes fits into the counter, was then used to count all samples. Sequential counting of the tubes thus required about 12 minutes. A small computer with printout capability then printed out the data after completion of the cycle.
# [1] = Storage stability of the radioiodinated product, judged by assay performance; format: physicochemical; conditions: stored in a 50% aqueous propylene glycol solution, ten-week period
# Source text: Radioiodination of biological compounds frequently leads to marked chemical instability and subsequent degradation of the radiolabel. This problem is often accentuated in the radiolabel when the materials to be radioiodinated are known to be sensitive to oxygen, light or extremes in pH, as is the case with folic acid and some derivatives.
# The reaction mixture was applied to a 1×20 cm Sephadex G25, fine, (Pharmacia Fine Chemicals, Uppsala, Sweden) column hydrated with distilled water and equilibrated with 0.1 M potassium phosphate, pH 7.5. The column was eluted with 0.1 M potassium phosphate buffer and 3 ml fractions collected. The product "peak" fractions 32-34 were collected, diluted 1:1 with propylene glycol and stored below 0° C.
# carboxypeptidase A = test: Enzymatic hydrolysis of pteroyltyrosine followed spectrophotometrically (uv); format: biochemical; conditions: 0.025 M Tris-HCl, 2 mM zinc chloride, pH 7.3, two hours at ambient temperature
# Procedure: Two milliliters of a solution of pteroyltrosine (0.75 mmoles/ml) in 0.025 M Tris-HCl containing 2 mM zinc chloride, pH 7.3 were diluted to 10 ml with distilled water. A portion of this solution (2 ml) was placed in a 1 cm cuvette and in another was placed 2 ml of distilled water. To each of the cuvettes was added 50 μl of a solution of 100 μl carboxypeptidase A suspension (Aldrich chemical, lot 060637) diluted with 0.9 ml of 10% lithium chloride.
# The time course of the reaction was followed spectrophotometrically (uv) over a period of two hours at ambient temperature. An increase and shift in max from 280 to 277 nm and a marked decrease in absorption at 220 nm was observed. Two isosbestic points at 242 and 282 nm were visible.
# whole milk folate binder, sequence (P02702 20-234): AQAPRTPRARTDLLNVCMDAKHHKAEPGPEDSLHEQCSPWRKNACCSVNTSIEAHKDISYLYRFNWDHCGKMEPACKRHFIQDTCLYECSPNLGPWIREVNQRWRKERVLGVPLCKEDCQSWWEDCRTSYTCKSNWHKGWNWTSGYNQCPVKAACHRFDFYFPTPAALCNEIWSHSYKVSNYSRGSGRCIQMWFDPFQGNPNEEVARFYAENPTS
compound,measurement,setting,value
"CN1c2c(O)nc(N)nc2NCC1CNc1ccc(C(=O)N[C@@H](CCC(=O)O)C(=O)O)cc1 (some centres unmarked) [N^5 -methyl THF, N-5-methyltetrahydrofolic acid]",coincidence of dose response curves generated using pteroyltyrosine [125I] as label,whole milk folate binder,more nearly coincident than at lower pH
Nc1nc(O)c2nc(CNc3ccc(C(=O)N[C@@H](Cc4ccc(O)c([125I])c4)C(=O)O)cc3)cnc2n1 [pteroyltyrosine [^125 I]],performance as radiolabel in CPB radioassay for folic acid,whole milk folate binder; folic acid concentration range 0-20 ng/ml,effective radiolabel in a sensitive CPB radioassay for folic acid
same,deterioration in assay performance on storage,[1],no deterioration in assay performance over a ten-week period
"Nc1nc2ncc(CNc3ccc(C(=O)N[C@@H](CCC(=O)O)C(=O)O)cc3)nc2c(=O)[nH]1 [folic acid, pteroylglutamic acid]",coincidence of dose response curves generated using pteroyltyrosine [125I] as label,whole milk folate binder,more nearly coincident than at lower pH
"Nc1nc2ncc(CNc3ccc(C(=O)N[C@@H](Cc4ccc(O)cc4)C(=O)O)cc3)nc2c(=O)[nH]1 [Pteroyltyrosine, Pteroyl-L-Tyrosine]",final uv spectrum after treatment with carboxypeptidase A,carboxypeptidase A,very similar to that of pteroic acid
